Key:
human CB1 receptor = target: T1, human CB1 receptor (Homo sapiens, UniProt P21554); test: biochemical; type: binding
T1 construct: expressed in transfected cells; host or cells: SK-N-MC cells, stably transfected with pcDNA3 CB-1 (human); semi-purified membrane pellet
Method: (§1) Binding Assay for CB1 or CB2 Agonists or Inverse Agonists
(§2) The human CB1 and CB2 receptors were stably expressed in SK-N-MC cells transfected with pcDNA3 CB-1 (human) or pcDNA3 CB-2 (human). The cells were grown in T-180 cell culture flasks under standard cell culture conditions at 37° C. in a 5% CO2 atmosphere. The cells were harvested by trysinization and homogenized in a homogenization buffer (10 mM Tris, 0.2 mM MgCl2, 5 mM KCl, with protease inhibitors aprotinin, leupeptin, pepstatin A and bacitracin) and centrifuged (2000 g). The supernatant was then centrifuged in 2M sucrose (31,300 g) to produce a semi-purified membrane pellet. The pellet was resuspended in homogenization and store at −80° C.
On the day of the assay, the pellet was thawed on ice and diluted in assay buffer (50 mM Tris-HCl, 5 mM MgCl2, 2.5 mM EDTA, 0.5 mg/mL fatty acid free bovine serum albumin, pH 7.5). […] The plate was covered and incubated for 90 minutes at 30° C. The contents were then aspirated onto a Packard […] GF/C filter bottom plate prewet with 0.5% polyethyleneimine. The wells of the polypropylene plate were rinsed and aspirated seven times with a 0.9% saline-0.5% TWEEN 20 solution. The […] plate was dried, a scintillation cocktail was added to each well and the counts representing binding were quantitated in a TOPCOUNT scintillation counter.
(§3) The IC50 binding values for compounds tested were calculated by linear regression and were obtained from studies in which varying compound concentrations were used.

human CB2 receptor = human CB2 receptor (Homo sapiens, UniProt P34972); test: Binding assay, cannabinoid CB2 receptor ([3H]-CP-55,940 displacement); details: Cannabinoid CB2 Receptor Binding IC50, human CB2 receptor, SK-N-MC cell membranes, radioligand CP-55,940 0.2 nM
Method: as §1, §2
On the day of the assay, the pellet was thawed on ice and diluted in assay buffer (50 mM Tris-HCl, 5 mM MgCl2, 2.5 mM EDTA, 0.5 mg/mL fatty acid free bovine serum albumin, pH 7.5). The diluted membrane was added with buffer, test compound or standard and the radioligand [H]^3+-CP-55,940_(0.2 nM) to the wells of a 96-well polypropylene plate. Non-specific binding was measured in wells containing 10 uM WIN 55,212. The plate was covered and incubated for 90 minutes at 30° C. The contents were then aspirated onto a Packard UNIFILTER GF/C filter bottom plate prewet with 0.5% polyethyleneimine. The wells of the polypropylene plate were rinsed and aspirated seven times with a 0.9% saline-0.5% TWEEN 20 solution. The UNIFILTER plate was dried, a scintillation cocktail was added to each well and the counts representing binding were quantitated in a TOPCOUNT scintillation counter.
as §3

Sequence of human CB2 receptor (P34972 whole entry): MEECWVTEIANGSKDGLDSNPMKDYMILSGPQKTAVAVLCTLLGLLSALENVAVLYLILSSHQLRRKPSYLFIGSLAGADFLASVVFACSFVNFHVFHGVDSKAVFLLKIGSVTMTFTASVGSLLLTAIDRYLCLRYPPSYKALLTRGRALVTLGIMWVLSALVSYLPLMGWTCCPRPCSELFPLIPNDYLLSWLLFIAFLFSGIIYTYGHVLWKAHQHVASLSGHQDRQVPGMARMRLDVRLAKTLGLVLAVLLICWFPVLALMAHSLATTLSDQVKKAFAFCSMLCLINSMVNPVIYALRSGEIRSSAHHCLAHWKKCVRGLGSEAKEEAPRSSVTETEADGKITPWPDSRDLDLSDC
T1 sequence (P21554 whole entry): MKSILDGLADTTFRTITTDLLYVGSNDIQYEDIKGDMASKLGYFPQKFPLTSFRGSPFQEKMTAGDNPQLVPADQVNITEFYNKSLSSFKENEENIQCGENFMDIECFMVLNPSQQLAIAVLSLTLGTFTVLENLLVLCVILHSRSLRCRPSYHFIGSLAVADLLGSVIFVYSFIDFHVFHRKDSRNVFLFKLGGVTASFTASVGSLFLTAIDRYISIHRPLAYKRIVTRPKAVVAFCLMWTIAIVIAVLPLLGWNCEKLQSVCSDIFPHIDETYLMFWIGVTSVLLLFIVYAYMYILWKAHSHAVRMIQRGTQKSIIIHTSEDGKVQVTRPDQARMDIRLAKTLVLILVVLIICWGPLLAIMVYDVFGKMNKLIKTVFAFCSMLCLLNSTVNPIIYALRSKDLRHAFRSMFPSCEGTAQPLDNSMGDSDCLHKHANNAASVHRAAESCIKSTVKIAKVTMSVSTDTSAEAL

SMILES | IC50 (human CB1 receptor) [nM] | IC50 (human CB2 receptor) [nM]
C[C@H](C1CCCCC1)N(C)C(=O)c1nn(C2CCCCC2)c2c1CCCC2 [Cpd 328, 1-cyclohexyl-4,5,6,7-tetrahydro-1H-indazole-3-carboxylic acid [(1R)-1-cyclohexyl-ethyl]-methylamide] | 5100 | 1600
O=C(NC(c1ccccc1)C1CCCCC1)c1nn(C2CCCCC2)c2c1CCCC2 (stereo not drawn) [Cpd 331, 1-cyclohexyl-4,5,6,7-tetrahydro-1H-indazole-3-carboxylic acid (cyclohexyl-phenyl)methylamide] | 3000 | 98
CCOC(=O)C(Cc1nn(C2CCCCC2)c2c1CCCC2)c1ccccc1OC (stereo not drawn) [Cpd 332, 3-(1-cyclohexyl-4,5,6,7-tetrahydro-1H-indazol-3-yl)-2-(2-methoxy-phenyl)-propionic acid ethyl ester] | 3900 | 1900
COc1ccccc1C(Cc1nn(C2CCCCC2)c2c1CCCC2)C(=O)NC1C2(C)CCC(C2)C1(C)C (stereo not drawn) [Cpd 333, 3-(1-cyclohexyl-4,5,6,7-tetrahydro-1H-indazol-3-yl)-2-(2-methoxy-phenyl)-N-(1,3,3-trimethyl-bicyclo[2.2.1]hept-2-yl)-propionamide] | 5700 | 2900
COC(=O)C(Cc1ccc(O)cc1)NC(=O)c1nn(-c2ccc(OC)cc2)c2c1CCCC2 (stereo not drawn) [compound 5] | 6800 | 291
COC(=O)C(Cc1ccc(O)cc1)NC(=O)c1c2c(nn1-c1ccc(OC)cc1)CCCC2 (stereo not drawn) [compound 6] | 6750 | 367
Cc1ccc(-n2nc(C(=O)NC3C4(C)CCC(C4)C3(C)C)c3c2CCCC3)cc1 (stereo not drawn) [compound 11] | 285 | 40.6
CC12CCC(C1)C(C)(C)C2NC(=O)c1nn(-c2ccc(Cl)cc2)c2c1CCCC2 (stereo not drawn) [compound 12] | 148 | 21.4
O=C(NC1CCCCCCC1)c1nn(-c2ccc(F)cc2)c2c1CCCC2 [compound 15] | 241 | 53.8
CC12CCC(C1)C(C)(C)C2NC(=O)c1nn(-c2ccccc2F)c2c1CCCC2 (stereo not drawn) [compound 16] | 185 | 5.4
O=C(NC1CC2CCC1C2)c1nn(-c2ccc(F)cc2)c2c1CCCC2 (stereo not drawn) [compound 20] | 169 | 35.2
CC1(C)C2CCC1(C)C(NC(=O)c1nn(-c3ccc(F)cc3)c3c1CCCC3)C2 (stereo not drawn) [compound 21] | 44 | 11
CC(NC(=O)c1nn(-c2ccc(F)cc2)c2c1CCCC2)C1C2CC3CC(C2)CC1C3 (stereo not drawn) [compound 22] | 1030 | 143
CCOC(=O)C1C2CCC(C2)C1NC(=O)c1nn(-c2ccc(F)cc2)c2c1CCCC2 (stereo not drawn) [compound 23] | 1800 | 100
CC12CCC(C1)C(C)(C)C2NC(=O)c1nn(-c2ccc(F)cc2)c2c1CCCC2C1CCCCC1 (stereo not drawn) [compound 24] | 3810 | 6820
CC1(C)C2CCC1(C)C(NC(=O)c1nn(C3CCCCC3)c3c1CCCC3)C2 (stereo not drawn) [compound 25] | 75.3 | 1.6
O=C(NNC1CCCCC1)c1nn(Cc2ccccc2)c2c1CCCC2 [compound 29] | 790 | 115
O=C(NNC1CCCCC1)c1nn(-c2ccc(F)cc2)c2c1CCCC2 [compound 30] | 7890 | 1470
O=C(NNC1CCCCC1)c1nn(C2CCCCC2)c2c1CCCC2 [compound 31] | 1690 | 195
CCOC(=O)[C@@H]1CCCC[C@H]1NC(=O)c1nn(-c2ccc(F)cc2)c2c1CCCC2 [compound 34] | 136 | 40.9
CC(NC(=O)c1nn(Cc2ccccc2)c2c1CCCC2)C12CC3CC(CC(C3)C1)C2 (stereo not drawn) [compound 39] | 9 | 6
O=C(NN1CCCCCC1)c1nn(Cc2ccccc2)c2c1CCCC2 [compound 41] | 49 | 34.8
CCOC(=O)C1C2CCC(C2)C1NC(=O)c1c2c(nn1Cc1ccccc1)CCCC2 (stereo not drawn) [compound 42] | 10700 | 640
O=C(NC1C2CC3CC(C2)CC1C3)c1nn(C2CCCCC2)c2c1CCCC2 (stereo not drawn) [compound 45] | 40 | 5.6
O=C(N[C@@H]1CCCC[C@@H]1CO)c1nn(C2CCCCC2)c2c1CCCC2 [compound 48] | 249 | 55.3
O=C(N[C@@H]1CCCC[C@H]1CO)c1nn(C2CCCCC2)c2c1CCCC2 [compound 49] | 150 | 72.8

SMILES | IC50 (human CB1 receptor) [nM] | IC50 (human CB2 receptor) [nM]
O=C(CCc1nn(C2CCCCC2)c2c1CCCC2)N[C@@H]1CCCC[C@H]1CO [compound 51] | 15200 | 8420
O=C(CCc1nn(C2CCCCC2)c2c1CCCC2)N[C@@H]1C2CCC(C2)[C@@H]1CO (stereo partly drawn) [compound 52] | 6260 | 4900
CC(NC(=O)CCc1nn(C2CCCCC2)c2c1CCCC2)C12CC3CC(CC(C3)C1)C2 (stereo not drawn) [compound 53] | 6120 | 230
CCOC(=O)[C@H]1C2CCC(C2)[C@H]1NC(=O)CCc1nn(C2CCCCC2)c2c1CCCC2 (stereo partly drawn) [compound 54] | 11400 | 6050
CCOC(=O)C1=C(NC(=O)c2nn(C3CCCCC3)c3c2CCCC3)CCC1 [compound 57] | 10900 | 2200
CCOC(=O)[C@H]1CCC[C@H]1NC(=O)c1nn(C2CCCCC2)c2c1CCCC2 [compound 58] | 736 | 170
CCOC(=O)[C@H]1CCCC[C@@H]1NC(=O)c1nn(C2CCCCC2)c2c1CCCC2 [compound 59] | 340 | 70
CCOC(=O)[C@@H]1CCC[C@@H]1NC(=O)c1nn(C2CCCCC2)c2c1CCCC2Cl (stereo partly drawn) [compound 61] | 2190 | 190
CCOC(=O)[C@H]1C2CCC(C2)[C@H]1NC(=O)c1nn(C2CCCCC2)c2c1CCCC2Cl (stereo partly drawn) [compound 63] | 13700 | 3300
CC(NC(=O)c1nn(C2CCCCC2)c2c1CCCC2Cl)C12CC3CC(CC(C3)C1)C2 (stereo not drawn) [compound 64] | 410 | 30
CCOC(=O)C1CCc2c(C(=O)NC3C4CC5CC(C4)CC3C5)nn(C3CCCCC3)c2C1 (stereo not drawn) [compound 68] | 463 | 57
CCOC(=O)C1CCc2c(C(=O)NC(C)C34CC5CC(CC(C5)C3)C4)nn(C3CCCCC3)c2C1 (stereo not drawn) [compound 69] | 220 | 2.7
CCOC(=O)C1CCCc2c1c(C(=O)NC1C3CC4CC(C3)CC1C4)nn2C1CCCCC1 (stereo not drawn) [compound 71] | 530 | 500
CCOC(=O)C1CCCc2c1c(C(=O)NC(C)C13CC4CC(CC(C4)C1)C3)nn2C1CCCCC1 (stereo not drawn) [compound 72] | 8400 | 4100
CC12CCC(C1)C(C)(C)C2NC(=O)c1nn(C2CCCCCC2)c2c1CCCC2 (stereo not drawn) [compound 74] | 15 | 1.4
COC(=O)C(Cc1ccc(O)cc1)NC(=O)c1nn(C2CCCCC2)c2c1CCCC2 (stereo not drawn) [compound 77] | 52 | 3
O=C(NC(Cc1ccc(OCc2ccccc2)cc1)C(=O)O)c1nn(C2CCCCC2)c2c1CCCC2 (stereo not drawn) [compound 78] | 4600 | 1210
O=C(NC1C2CC3CC(C2)CC1C3)c1nn(C2CCCCC2)c2c1CC(C(=O)OCc1ccccc1)CC2 (stereo not drawn) [compound 79] | 30 | 10
COC(=O)C(Cc1ccc(OCc2ccccc2)cc1)NC(=O)c1nn(Cc2ccccc2)c2c1CCCC2 (stereo not drawn) [compound 80] | 230 | 170
COC(=O)C(Cc1ccc(OCc2ccccc2)cc1)NC(=O)c1nn(C2CCCCC2)c2c1CCCC2 (stereo not drawn) [compound 81] | 490 | 20
COC(=O)C(Cc1ccc(O)c(O)c1)NC(=O)c1nn(Cc2ccccc2)c2c1CCCC2 (stereo not drawn) [compound 82] | 700 | 200
COC(=O)C(Cc1c[nH]c2ccccc12)NC(=O)c1nn(Cc2ccccc2)c2c1CCCC2 (stereo not drawn) [compound 83] | 38 | 20
CC(C)(C)OC(=O)NC1CCc2c(c(C(=O)NC3C4CC5CC(C4)CC3C5)nn2C2CCCCC2)C1 (stereo not drawn) [compound 85] | 600 | 82
COC(=O)NC1CCc2c(c(C(=O)NC3C4CC5CC(C4)CC3C5)nn2C2CCCCC2)C1 (stereo not drawn) [compound 88] | 2400 | 87
O=C(NC1C2CC3CC(C2)CC1C3)c1nn(C2CCCCC2)c2c1CC(NC(=O)N1CCOCC1)CC2 (stereo not drawn) [compound 90] | 1840 | 1120

Reference: patent publication US7452997B2 (priority 2004, dated 2008)
